The text below walks through data of PubChem BioAssay (NCI).

Among the test systems are A498 renal; SNB-75 CNS; COLO 205 colon; NCI-H460 lung; OVCAR-4 ovarian; EKVX NSCLC; OVCAR-3 ovarian; KM12 colon; DU-145 prostate; NCI-H226 lung; SF-268 CNS; CCRF-CEM leukemia; OVCAR-8 ovarian; HOP-62 NSCLC; CAKI-1 renal.
Holding throughout (test): growth of human tumour cells (NCI), 48 h

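Tested at 5 concentrations; 48 h exposure; 96-well plates; endpoints linearly interpolated, else capped at highest concentration. At the TGI there is no net growth.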

With `C=C1C(=O)OC2C3C(=C)[C@@H](OC(C)=O)CC3C(C)=CC(OC(=O)C(C)(O)C(C)OC(C)=O)[C@@H]12` (stereo not given in full), the TGI with A498 renal turned out to be 32.3 µM; in the assay on SNB-75 CNS, 28.4 µM; with COLO 205 colon it was 15.9 µM; with NCI-H460 lung, 44 µM; in the assay on OVCAR-4 ovarian, 23.3 µM; with EKVX NSCLC, 30.2 µM. For the same compound, the TGI in the assay on OVCAR-3 ovarian was found to be 21.8 µM; with KM12 colon, 28.5 µM; in the assay on DU-145 prostate, 30.3 µM; in the assay on NCI-H226 lung, 48.4 µM; in the assay on SF-268 CNS, 37.9 µM; in the assay with CCRF-CEM leukemia, 7.51 µM. Moreover, the TGI with OVCAR-8 ovarian was 37.9 µM; in the assay on HOP-62 NSCLC, 46.6 µM; with CAKI-1 renal it was 12.4 µM.
Take `O=C1C2=Cc3ccccc3CCN2c2ccc([N+](=O)[O-])cc21`: the TGI in the assay with A498 renal, with SNB-75 CNS, in the assay on COLO 205 colon, with NCI-H460 lung, in the assay on OVCAR-4 ovarian and in the assay on EKVX NSCLC was > 100 µM each time. Also, the TGI in the assay on OVCAR-3 ovarian, in the assay with KM12 colon, in the assay with DU-145 prostate, in the assay on NCI-H226 lung, in the assay on SF-268 CNS and in the assay with CCRF-CEM leukemia was > 100 µM throughout. Also, the TGI in the assay on OVCAR-8 ovarian, with HOP-62 NSCLC and with CAKI-1 renal was > 100 µM throughout.
Regarding `CC1C2CC(CC2=O)C1(C)C` (stereo not given), the TGI in the assay with A498 renal, in the assay with SNB-75 CNS, in the assay with COLO 205 colon, with NCI-H460 lung, with OVCAR-4 ovarian and in the assay on EKVX NSCLC was > 100 µM each time. The TGI in the assay on OVCAR-3 ovarian, in the assay on KM12 colon, in the assay on DU-145 prostate, in the assay with NCI-H226 lung, in the assay with SF-268 CNS and in the assay with CCRF-CEM leukemia was > 100 µM in each case. Further, the TGI with OVCAR-8 ovarian, in the assay on HOP-62 NSCLC and with CAKI-1 renal was > 100 µM each time.
As to `Cc1cc2c(cc1-c1cc3c(cc1C)C(C(C)C)=C(O)C(=O)/C3=C\Nc1cccc3c(N)cccc13)/C(=C/Nc1cccc3c(N)cccc13)C(=O)C(O)=C2C(C)C`, the TGI with A498 renal, in the assay with SNB-75 CNS, with COLO 205 colon, in the assay on NCI-H460 lung, in the assay on OVCAR-4 ovarian and with EKVX NSCLC was > 100 µM in each case. Also, the TGI in the assay on OVCAR-3 ovarian, in the assay on KM12 colon, in the assay with DU-145 prostate, with NCI-H226 lung, with SF-268 CNS and with CCRF-CEM leukemia was > 100 µM throughout. The TGI in the assay on OVCAR-8 ovarian, with HOP-62 NSCLC and in the assay on CAKI-1 renal was > 100 µM throughout.
On to `Nc1nc(Cl)c(N)c(NCC2(CO)CC(O)C2)n1` (stereo not given), for which the TGI in the assay with A498 renal, in the assay on SNB-75 CNS, in the assay on COLO 205 colon, in the assay with NCI-H460 lung, in the assay with OVCAR-4 ovarian and with EKVX NSCLC was > 100 µM in each case. Further, the TGI in the assay with OVCAR-3 ovarian, in the assay with KM12 colon, with DU-145 prostate, with NCI-H226 lung, in the assay with SF-268 CNS and with CCRF-CEM leukemia was > 100 µM throughout. In addition, the TGI in the assay with OVCAR-8 ovarian, in the assay on HOP-62 NSCLC and in the assay on CAKI-1 renal was > 100 µM throughout.
Take `O=C(c1no[n+]([O-])c1C(=O)c1csc2ccccc12)c1csc2ccccc12`: the TGI came to 29.3 µM in the assay on A498 renal; 28.5 µM with SNB-75 CNS; 9 µM in the assay with COLO 205 colon; 28.3 µM in the assay with NCI-H460 lung; 7.3 µM in the assay with OVCAR-4 ovarian; 12.5 µM in the assay with EKVX NSCLC. Moreover, the TGI came to 3.78 µM in the assay with OVCAR-3 ovarian; 18.7 µM in the assay with KM12 colon; 32.3 µM in the assay with DU-145 prostate; 35 µM in the assay on NCI-H226 lung; 23.2 µM in the assay with SF-268 CNS; 0.267 µM in the assay on CCRF-CEM leukemia. The TGI turned out to be 11.4 µM in the assay with OVCAR-8 ovarian, 25.4 µM with HOP-62 NSCLC and 2.23 µM in the assay on CAKI-1 renal.
In the case of `COc1ccc(C(c2ccccc2)N2C(=O)CCC2C(=O)O)cc1OC` (stereo not given), the TGI with A498 renal, with SNB-75 CNS, with COLO 205 colon, in the assay on NCI-H460 lung, in the assay on OVCAR-4 ovarian and with EKVX NSCLC was > 100 µM in each case. Besides, the TGI with OVCAR-3 ovarian, with KM12 colon, in the assay on DU-145 prostate, with NCI-H226 lung, in the assay with SF-268 CNS and in the assay with CCRF-CEM leukemia was > 100 µM in each case. Moreover, the TGI in the assay with OVCAR-8 ovarian, in the assay with HOP-62 NSCLC and with CAKI-1 renal was > 100 µM throughout.
In the case of `O=Cc1cc(O)ccc1Br`, the TGI with A498 renal is > 100 µM; in the assay with SNB-75 CNS, > 100 µM; in the assay with COLO 205 colon, > 100 µM; with NCI-H460 lung, > 100 µM; in the assay on OVCAR-4 ovarian it was > 65.7 µM; in the assay on EKVX NSCLC it was > 100 µM. Further, the TGI with OVCAR-3 ovarian is > 91.8 µM; in the assay on KM12 colon, > 81.6 µM; with DU-145 prostate, > 100 µM; in the assay on NCI-H226 lung, > 91.7 µM; in the assay with SF-268 CNS, > 100 µM; with CCRF-CEM leukemia, 15.5 µM. Further, the TGI is 53.7 µM in the assay on OVCAR-8 ovarian, > 96.2 µM in the assay with HOP-62 NSCLC and 48.1 µM in the assay on CAKI-1 renal.
